Here are results for 26 compounds from US11254686B1 (Corvus Pharmaceuticals, Inc., priority 2017, dated 2022).

Molecules are shown by their SMILES.

One experiment deals with adenosine A2A receptor (Homo sapiens (Human), UniProt P29274). The experiment in a line: Adenosine receptor activity assay (Table 1), A2A activity. Type of experiment: biochemical. The note with it: read-out: Ave A2A cAMP IC50.
The next experiment deals with adenosine A2B receptor (Homo sapiens (Human), UniProt P29275). The experiment in a line: Adenosine receptor activity assay (Table 1), A2B activity. It counts as biochemical. The note with it: for IC50: read-out: Ave A2B cAMP IC50.
Setting [1] is: A2A activity to A2B activity (A2A/A2B).
The mark [2] stands for this setting: A2A activity to the A2B activity, A2A/A2B.

Chain of adenosine A2B receptor (P29275 whole entry): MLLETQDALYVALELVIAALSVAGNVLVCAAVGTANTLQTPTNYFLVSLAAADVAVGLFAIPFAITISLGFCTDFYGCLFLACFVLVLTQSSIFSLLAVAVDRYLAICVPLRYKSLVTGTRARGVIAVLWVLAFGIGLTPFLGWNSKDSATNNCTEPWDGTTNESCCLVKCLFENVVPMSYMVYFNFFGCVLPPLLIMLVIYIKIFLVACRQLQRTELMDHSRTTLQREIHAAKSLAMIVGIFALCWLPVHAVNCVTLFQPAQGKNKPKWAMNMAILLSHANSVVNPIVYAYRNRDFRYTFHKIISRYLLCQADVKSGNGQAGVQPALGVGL
Chain of adenosine A2A receptor (P29274 whole entry): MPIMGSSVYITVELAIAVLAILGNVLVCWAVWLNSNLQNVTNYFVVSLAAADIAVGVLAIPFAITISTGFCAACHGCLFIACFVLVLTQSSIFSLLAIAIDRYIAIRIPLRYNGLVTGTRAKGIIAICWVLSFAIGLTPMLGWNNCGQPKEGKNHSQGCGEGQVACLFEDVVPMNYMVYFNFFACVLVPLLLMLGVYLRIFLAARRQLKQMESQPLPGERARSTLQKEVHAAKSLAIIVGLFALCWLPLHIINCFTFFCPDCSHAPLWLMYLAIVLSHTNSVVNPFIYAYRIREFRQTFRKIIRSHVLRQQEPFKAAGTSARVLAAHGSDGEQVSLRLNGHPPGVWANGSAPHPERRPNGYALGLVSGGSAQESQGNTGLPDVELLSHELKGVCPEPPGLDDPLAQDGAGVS

Take `COc1ccc(CNC(=O)c2nc(NCc3cccnc3C)nc3ccsc23)cn1` [Example Z94, N-((6-Methoxypyridin-3-yl)methyl)-2-(((2-methylpyridin-3-yl)methyl)amino)thieno[3,2-d]pyrimidine-4-carboxamide]: the IC50 on adenosine A2A receptor and at adenosine A2B receptor was 100 to 500 nM throughout. Further, the Ratio at adenosine A2B receptor (setting [1]) is on record as 1.00.

As for `Cc1ncccc1CNC(=O)c1nc(NCc2cccnc2C)nc2ccsc12` [Example Z88, N-((2-Methylpyridin-3-yl)methyl)-2-(((2-methylpyridin-3-yl)methyl)amino)thieno[3,2-d]pyrimidine-4-carboxamide], the IC50 at adenosine A2A receptor and on adenosine A2B receptor was > 500 nM throughout. Also, the Ratio on adenosine A2B receptor (setting [1]) is recorded as 1.00.

For `CN(C(=O)OC(C)(C)C)C1CN(C(=O)c2nc(NCc3cncc(F)c3)nc3ccsc23)C1` [Example Z235, tert-Butyl (1-(2-(((5-fluoropyridin-3-yl)methyl)amino)thieno[3,2-d]pyrimidine-4-carbonyl)azetidin-3-yl)(methyl)carbamate], the IC50 (in general, the midpoint of a concentration-inhibition curve) is 100 to 500 nM on adenosine A2A receptor and 50 to 100 nM at adenosine A2B receptor. In addition, the Ratio at adenosine A2B receptor (setting [1]) is 2.57.

On to `Cc1cc2nc(N[C@@H](C)c3cccnc3)nc(C(=O)N3CC(CNC(=O)OC(C)(C)C)C3)c2s1` [Example Z498, tert-Butyl (S)-((1-(6-methyl-2-((1-(pyridin-3-yl)ethyl)amino)thieno[3,2-d]pyrimidine-4-carbonyl)azetidin-3-yl)methyl)carbamate], for which the IC50 at adenosine A2A receptor was > 500 nM; at adenosine A2B receptor, 100 to 500 nM. In addition, the Ratio at adenosine A2B receptor (setting [2]) turned out to be 5.78.

`CC(=O)N[C@H]1CCN(C(=O)c2nc(NCc3cncc(F)c3)nc3ccsc23)C1` [Example Z330, (S)—N-(1-(2-(((5-Fluoropyridin-3-yl)methyl)amino)thieno[3,2-d]pyrimidine-4-carbonyl)pyrrolidin-3-yl)acetamide]: the IC50 at adenosine A2A receptor was > 500 nM; at adenosine A2B receptor it was < 10 nM. Besides, the Ratio on adenosine A2B receptor (setting [1]) is 196.86.

`CCO[C@@H]1CCN(C(=O)c2nc(N[C@@H](C)c3ccccn3)nc3ccsc23)C1` [Example Z438, ((R)-3-Ethoxypyrrolidin-1-yl)(2-(((S)-1-(pyridin-2-yl)ethyl)amino)thieno[3,2-d]pyrimidin-4-yl)methanone]: the values for the IC50 at adenosine A2A receptor and on adenosine A2B receptor were 50 to 100 nM and 10 to 50 nM, respectively. On adenosine A2B receptor (setting [2]), the Ratio amounted to 2.65.

Turning to `C[C@H](Nc1nc(C(=O)N2CCCC2)c2sccc2n1)c1ccnc(F)c1` [Example Z406, (S)-(2-((1-(2-Fluoropyridin-4-yl)ethyl)amino)thieno[3,2-d]pyrimidin-4-yl)(pyrrolidin-1-yl)methanone], the IC50 at adenosine A2A receptor is 100 to 500 nM; at adenosine A2B receptor, 10 to 50 nM.

Regarding `C[C@H](Nc1nc(C(=O)N2CC(C(N)=O)C2)c2sccc2n1)c1cncc(F)c1` [Example Z563, (S)-1-(2-((1-(5-Fluoropyridin-3-yl)ethyl)amino)thieno[3,2-d]pyrimidine-4-carbonyl)azetidine-3-carboxamide], the IC50 is > 500 nM at adenosine A2A receptor and 10 to 50 nM at adenosine A2B receptor. Moreover, the Ratio at adenosine A2B receptor (setting [2]) worked out at 16.87.

As for `O=C(NCc1cncc(F)c1)c1nc(NCc2cncc(F)c2)nc2ccsc12` [Example Z15, N-((5-Fluoropyridin-3-yl)methyl)-2-(((5-fluoropyridin-3-yl)methyl)amino)thieno[3,2-d]pyrimidine-4-carboxamide], the figures for the IC50 on adenosine A2A receptor and at adenosine A2B receptor were > 500 nM and 100 to 500 nM, respectively. At adenosine A2B receptor (setting [1]), the Ratio is recorded as 9.43.

Turning to `COC[C@H](Nc1nc(C(=O)NC[C@H](C)O)c2sccc2n1)c1cccnc1` [Example Z323, N—((S)-2-Hydroxypropyl)-2-(((R)-2-methoxy-1-(pyridin-3-yl)ethyl)amino)thieno[3,2-d]pyrimidine-4-carboxamide], the IC50 at adenosine A2A receptor and on adenosine A2B receptor was > 500 nM in each case. At adenosine A2B receptor (setting [1]), the Ratio was 3.30.

Regarding `C[C@H](Nc1nc(C(=O)N2CCC2)c2sc(N)cc2n1)c1cccnc1` [Example Z203, (S)-(6-Amino-2-((1-(pyridin-3-yl)ethyl)amino)thieno[3,2-d]pyrimidin-4-yl)(azetidin-1-yl)methanone], the IC50 was 100 to 500 nM on adenosine A2A receptor and 10 to 50 nM at adenosine A2B receptor. The Ratio on adenosine A2B receptor (setting [1]) is on record as 33.74.

Turning to `C[C@H](Nc1nc(C(=O)NCc2cncc(C#N)c2)c2sccc2n1)c1ccccn1` [Example Z102, (S)—N-((5-Cyanopyridin-3-yl)methyl)-2-((1-(pyridin-2-yl)ethyl)amino)thieno[3,2-d]pyrimidine-4-carboxamide], the IC50 at adenosine A2A receptor and at adenosine A2B receptor was 100 to 500 nM throughout. Besides, at adenosine A2B receptor (setting [1]), the Ratio was 2.24.

As for `CC1(O)CN(C(=O)c2nc(NCc3cncc(F)c3)nc3ccsc23)C1` [Example Z98, (2-(((5-Fluoropyridin-3-yl)methyl)amino)thieno[3,2-d]pyrimidin-4-yl)(3-hydroxy-3-methylazetidin-1-yl)methanone], the concentration for half-maximal inhibition (IC50) was > 500 nM at adenosine A2A receptor and 10 to 50 nM at adenosine A2B receptor. At adenosine A2B receptor (setting [1]), the Ratio was found to be 22.37.

Turning to `COCC(Nc1nc(C(=O)N2CC[C@H](O)C2)c2sccc2n1)c1cccnc1` (stereo partly drawn) [Example Z124, ((S)-3-Hydroxypyrrolidin-1-yl)(2-((2-methoxy-1-(pyridin-3-yl)ethyl)amino)thieno[3,2-d]pyrimidin-4-yl)methanone], the IC50 is > 500 nM at adenosine A2A receptor and 100 to 500 nM at adenosine A2B receptor. The Ratio at adenosine A2B receptor (setting [1]) is listed as 2.13.

As to `C[C@H](Nc1nc(C(=O)N2CCC(C(=O)O)C2)c2sccc2n1)c1cncc(F)c1` (stereo partly drawn) [Example Z379, 1-(2-(((S)-1-(5-Fluoropyridin-3-yl)ethyl)amino)thieno[3,2-d]pyrimidine-4-carbonyl)pyrrolidine-3-carboxylic acid], the IC50 on adenosine A2A receptor is > 500 nM; at adenosine A2B receptor, 100 to 500 nM. Besides, the Ratio on adenosine A2B receptor (setting [1]) is 68.03.

Take `C[C@H](Nc1nc(C(=O)N2CCOCC2)c2sccc2n1)c1cccnc1` [Example Z11, (S)-Morpholino(2-((1-(pyridin-3-yl)ethyl)amino)thieno[3,2-d]pyrimidin-4-yl)methanone]: the IC50 at adenosine A2A receptor and at adenosine A2B receptor was > 500 nM in each case. Also, at adenosine A2B receptor (setting [1]), the Ratio turned out to be 4.88.

In the case of `C[C@H](CO)NC(=O)c1nc(N[C@@H](C)c2ccccn2)nc2ccsc12` [Example Z182, N—((R)-1-Hydroxypropan-2-yl)-2-(((S)-1-(pyridin-2-yl)ethyl)amino)thieno[3,2-d]pyrimidine-4-carboxamide], the values for the IC50 on adenosine A2A receptor and on adenosine A2B receptor were 100 to 500 nM and 50 to 100 nM, respectively. For the same compound, the Ratio on adenosine A2B receptor (setting [1]) turned out to be 5.92.

On to `C[C@H](Nc1nc(C(=O)N[C@H](C)c2cccnc2)c2sccc2n1)c1cccnc1` [Example Z30, N—((R)-1-(Pyridin-3-yl)ethyl)-2-(((S)-1-(pyridin-3-yl)ethyl)amino)thieno[3,2-d]pyrimidine-4-carboxamide], for which the IC50 at adenosine A2A receptor is > 500 nM; at adenosine A2B receptor, 100 to 500 nM. Besides, the Ratio at adenosine A2B receptor (setting [1]) is given as 8.34.

Take `C[C@H](Nc1nc(C(=O)N2CCN(C(=O)OCC(C)(C)C)C2)c2sccc2n1)c1cncc(F)c1` [Example Z566, Neopentyl (S)-3-(2-((1-(5-fluoropyridin-3-yl)ethyl)amino)thieno[3,2-d]pyrimidine-4-carbonyl)imidazolidine-1-carboxylate]: the half-maximal inhibitory concentration (IC50) on adenosine A2A receptor and at adenosine A2B receptor was > 500 nM throughout. Also, on adenosine A2B receptor (setting [2]), the Ratio is 3.10.

Take `COC[C@@H]1CCN1C(=O)c1nc(N[C@@H](C)c2cncc(F)c2)nc2cc(C)sc12` [Example Z569, (2-(((S)-1-(5-Fluoropyridin-3-yl)ethyl)amino)-6-methylthieno[3,2-d]pyrimidin-4-yl)((S)-2-(methoxymethyl)azetidin-1-yl)methanone]: the IC50 is > 500 nM at adenosine A2A receptor and 100 to 500 nM at adenosine A2B receptor. In addition, on adenosine A2B receptor (setting [2]), the Ratio is recorded as 40.75.

`CC(=O)NC1CN(C(=O)c2nc(N[C@@H](C)c3ccccn3)nc3ccsc23)C1` [Example Z533, (S)—N-(1-(2-((1-(pyridin-2-yl)ethyl)amino)thieno[3,2-d]pyrimidine-4-carbonyl)azetidin-3-yl)acetamide]: the IC50 on adenosine A2A receptor and at adenosine A2B receptor was 100 to 500 nM each time.

For the compound `COc1ncccc1CNC(=O)c1nc(N[C@@H](C)c2ccccn2)nc2ccsc12` [Example Z449, (S)—N-((2-Methoxypyridin-3-yl)methyl)-2-((1-(pyridin-2-yl)ethyl)amino)thieno[3,2-d]pyrimidine-4-carboxamide], the IC50 at adenosine A2A receptor and at adenosine A2B receptor was > 500 nM each time. The Ratio on adenosine A2B receptor (setting [2]) turned out to be 0.91.

Turning to `O=C(c1nc(NCCn2ccnc2)nc2ccsc12)N1CCCC1` [Example Z273, (2-((2-(1H-Imidazol-1-yl)ethyl)amino)thieno[3,2-d]pyrimidin-4-yl)(pyrrolidin-1-yl)methanone], the concentration for half-maximal inhibition (IC50) on adenosine A2A receptor and on adenosine A2B receptor was > 500 nM throughout. Besides, the Ratio on adenosine A2B receptor (setting [1]) is 2.15.

As to `C[C@H](Nc1nc(C(=O)N2CC[C@@H](N)C2)c2sccc2n1)c1ccccn1` [Example Z364, ((R)-3-Aminopyrrolidin-1-yl)(2-(((S)-1-(pyridin-2-yl)ethyl)amino)thieno[3,2-d]pyrimidin-4-yl)methanone], the IC50 on adenosine A2A receptor is > 500 nM; at adenosine A2B receptor, 100 to 500 nM. In addition, at adenosine A2B receptor (setting [1]), the Ratio is listed as 11.16.

Turning to `C[C@H](Nc1nc(C(=O)N2CCC[C@H]2C)c2sccc2n1)c1cccnc1` [Example Z37, ((R)-2-Methylpyrrolidin-1-yl)(2-(((S)-1-(pyridin-3-yl)ethyl)amino)thieno[3,2-d]pyrimidin-4-yl)methanone], the IC50 on adenosine A2A receptor is > 500 nM; on adenosine A2B receptor it was 100 to 500 nM. Besides, at adenosine A2B receptor (setting [1]), the Ratio turned out to be 64.10.

For the compound `C[C@H](Nc1nc(C(=O)N2CC[C@@H](F)C2)c2sc(N)cc2n1)c1cccnc1` [Example Z195, (6-Amino-2-(((S)-1-(pyridin-3-yl)ethyl)amino)thieno[3,2-d]pyrimidin-4-yl)((R)-3-fluoropyrrolidin-1-yl)methanone], the values for the IC50 on adenosine A2A receptor and on adenosine A2B receptor were 100 to 500 nM and 10 to 50 nM, respectively. The Ratio on adenosine A2B receptor (setting [1]) was 17.59.
